Format in all cases: functional
Experiment [1] deals with Pyricularia oryzae. Kind of experiment: Antifungal activity against Magnaporthe oryzae assessed as inhibition at 0.92 mg/L relative to control.
The subject of experiment [2] is Blumeria graminis. Put plainly: Antifungal activity against Blumeria graminis assessed as inhibition at 1.56 mg/L relative to control.
The subject of experiment [3] is Pseudoperonospora cubensis. Put plainly: Antifungal activity against Pseudoperonospora cubensis assessed as inhibition at 25 mg/L relative to control.
Experiment [4] deals with Phytophthora infestans. Put plainly: Antifungal activity against Phytophthora infestans assessed as inhibition at 25 mg/L relative to control.
The subject of another experiment is Myzus persicae. Kind of experiment: Insecticidal activity against Myzus persicae (green peach aphid) at 600 mg/L relative to control.
In experiment [5] the test system is Blumeria graminis. Put plainly: Antifungal activity against Blumeria graminis assessed as inhibition at 400 mg/L relative to control.
Experiment [6] concerns Pyricularia oryzae. Kind of experiment: Antifungal activity against Magnaporthe oryzae assessed as inhibition at 25 mg/L relative to control.
The subject of experiment [7] is Blumeria graminis. Put plainly: Antifungal activity against Blumeria graminis assessed as inhibition at 6.25 mg/L relative to control.
The test system of experiment [8] is Pseudoperonospora cubensis. Kind of experiment: Antifungal activity against Pseudoperonospora cubensis assessed as inhibition at 400 mg/L relative to control.
Experiment [9] concerns Pseudoperonospora cubensis. Put plainly: Antifungal activity against Pseudoperonospora cubensis assessed as inhibition at 6.25 mg/L relative to control.
The test system of experiment [10] is Phytophthora infestans. Put plainly: Antifungal activity against Phytophthora infestans assessed as inhibition at 0.92 mg/L relative to control.
Another experiment relates to Leucania. Kind of experiment: Insecticidal activity against Leucania venalba at 600 mg/L relative to control.
The subject of another experiment is Tetranychus cinnabarinus. Kind of experiment: Acaricidal activity against Tetranychus cinnabarinus (carmine spider mite) at 600 mg/L relative to control.
A further experiment deals with Culex pipiens pallens. Kind of experiment: Insecticidal activity against Culex pipiens pallens (mosquito) at 600 mg/L relative to control.

The source of these data is ChEMBL document CHEMBL3044728, “Synthesis and biological activity of new (E)-alpha-(Methoxyimino)benzeneacetate derivatives containing a substituted pyrazole ring” (2010).

A word on the inhibition: it is the change of the read-out against control, counted positive when it falls.

With `CNC(=O)/C(=N/OC)c1ccccc1COc1cc(-c2ccccc2OC)nn1C`, in the experiment on Pyricularia oryzae [1], the inhibition at 0.92 µg/mL is 0%. Further, the inhibition at 1.56 µg/mL with Blumeria graminis [2] is 45%. For the same compound, the inhibition at 25 µg/mL in [3] was 10%; in the experiment on Phytophthora infestans [4], 0%; with Pyricularia oryzae [6], 100%. This compound also yielded an Activity with Myzus persicae of 100%. The inhibition at 400 µg/mL in the experiment on Blumeria graminis [5] came to 100%; in experiment [8] it was 75%. For the same compound, the inhibition at 6.25 µg/mL in the experiment on Blumeria graminis [7] stood at 100%.
Take `CNC(=O)/C(=N/OC)c1ccccc1COc1c(C)c(-c2ccc(C)cc2C)nn1C`: the inhibition at 0.92 µg/mL in the experiment on Pyricularia oryzae [1] is 50%; in the experiment on Phytophthora infestans [10] it was 100%. The inhibition at 1.56 µg/mL with Blumeria graminis [2] was found to be 65%. Besides, the inhibition at 25 µg/mL (in experiment [3]; in the experiment with Phytophthora infestans [4]; with Pyricularia oryzae [6]) was 100% each time. In addition, the inhibition at 6.25 µg/mL (in experiment [9]; in the experiment on Blumeria graminis [7]) was 100% throughout. Further, the inhibition at 400 µg/mL (in the experiment with Blumeria graminis [5]; in experiment [8]) was 100% in each case.
Turning to `CO/N=C(/C(=O)OC)c1ccccc1COc1c(C)c(-c2cc(C)ccc2C)nn1C`, the Activity in the experiment on Leucania and in the experiment with Myzus persicae was 100% in each case. Moreover, the inhibition at 0.92 µg/mL with Pyricularia oryzae [1] is 100%; with Phytophthora infestans [10] it was 60%. Besides, the inhibition at 1.56 µg/mL in the experiment on Blumeria graminis [2] came to 20%. The inhibition at 25 µg/mL was found to be 80% in experiment [3], 100% in the experiment with Phytophthora infestans [4] and 100% in the experiment with Pyricularia oryzae [6]. The inhibition at 6.25 µg/mL (in [9]; with Blumeria graminis [7]) was 40% each time. The inhibition at 400 µg/mL (in the experiment with Blumeria graminis [5]; in [8]) was 100% in each case.
For the compound `CO/N=C(/C(=O)OC)c1ccccc1COc1cc(-c2ccc(C)c(C)c2)nn1C`, the inhibition at 0.92 µg/mL came out at 50% in the experiment with Pyricularia oryzae [1] and 80% in the experiment on Phytophthora infestans [10]. The inhibition at 25 µg/mL in experiment [3] amounted to 40%; with Phytophthora infestans [4], 100%; in the experiment on Pyricularia oryzae [6], 100%. In addition, the Activity in the experiment with Tetranychus cinnabarinus and in the experiment with Myzus persicae was 100% throughout. In addition, the inhibition at 400 µg/mL came to 100% in the experiment on Blumeria graminis [5] and 98% in experiment [8]. Moreover, the inhibition at 6.25 µg/mL in the experiment on Blumeria graminis [7] was 30%.
As for `CNC(=O)/C(=N/OC)c1ccccc1COc1cc(-c2ccc(C)c(C)c2)nn1C`, the inhibition at 0.92 µg/mL in the experiment on Pyricularia oryzae [1] came out at 50%; with Phytophthora infestans [10], 80%. In addition, the inhibition at 1.56 µg/mL in the experiment with Blumeria graminis [2] was determined as 40%. For the same compound, the inhibition at 25 µg/mL (in [3]; in the experiment on Phytophthora infestans [4]; in the experiment on Pyricularia oryzae [6]) was 100% each time. The Activity in the experiment with Tetranychus cinnabarinus and in the experiment with Myzus persicae was 100% each time. For the same compound, the inhibition at 6.25 µg/mL in experiment [9] is 85%; in the experiment on Blumeria graminis [7], 100%. In addition, the inhibition at 400 µg/mL (with Blumeria graminis [5]; in experiment [8]) was 100% each time.
With `CNC(=O)/C(=N/OC)c1ccccc1COc1c(C)c(-c2ccc(OCC(F)(F)F)cc2)nn1C`, the inhibition at 0.92 µg/mL in the experiment on Pyricularia oryzae [1] and with Phytophthora infestans [10] was 50% in each case. Besides, the inhibition at 1.56 µg/mL in the experiment with Blumeria graminis [2] stood at 40%. For the same compound, the inhibition at 25 µg/mL in experiment [3] worked out at 80%; in the experiment on Phytophthora infestans [4] it was 100%; in the experiment on Pyricularia oryzae [6] it was 80%. Moreover, the values for the inhibition at 6.25 µg/mL (in experiment [9]; in the experiment on Blumeria graminis [7]) were 30% and 100%, respectively. Further, the inhibition at 400 µg/mL (in the experiment on Blumeria graminis [5]; in [8]) was 100% each time.
As for `CO/N=C(/C(=O)OC)c1ccccc1COc1cc(-c2ccc(C)cc2C)nn1C`, the figures for the inhibition at 0.92 µg/mL in the experiment on Pyricularia oryzae [1] and in the experiment on Phytophthora infestans [10] were 0% and 100%, respectively. In addition, the inhibition at 25 µg/mL in experiment [3] turned out to be 90%; in the experiment on Phytophthora infestans [4], 100%; in the experiment with Pyricularia oryzae [6] it was 100%. The inhibition at 6.25 µg/mL (in experiment [9]; in the experiment on Blumeria graminis [7]) was 65% throughout. The compound also came in with an Activity with Myzus persicae of 100%. For the same compound, the results for the inhibition at 400 µg/mL (in the experiment on Blumeria graminis [5]; in [8]) were 100% and 95%, respectively.
In the experiment on Culex pipiens pallens, `CO/N=C(/C(=O)OC)c1ccccc1COc1cc(-c2ccc(Cl)cc2)nn1C` displayed an Activity of 100%. Moreover, the inhibition at 25 µg/mL in [3] was 90%; in the experiment on Phytophthora infestans [4], 80%; in the experiment with Pyricularia oryzae [6], 80%. Further, the inhibition at 6.25 µg/mL is 80% in [9] and 40% in the experiment on Blumeria graminis [7]. Further, the inhibition at 400 µg/mL (in the experiment with Blumeria graminis [5]; in experiment [8]) was 100% each time. In addition, the inhibition at 0.92 µg/mL in the experiment with Phytophthora infestans [10] is 50%.
For the compound `CNC(=O)/C(=N/OC)c1ccccc1COc1cc(-c2ccc(C)cc2C)nn1C`, the values for the inhibition at 0.92 µg/mL with Pyricularia oryzae [1] and with Phytophthora infestans [10] were 50% and 100%, respectively. Besides, in the experiment on Blumeria graminis [2], the inhibition at 1.56 µg/mL amounted to 30%. Also, the inhibition at 25 µg/mL (in experiment [3]; in the experiment with Phytophthora infestans [4]; in the experiment on Pyricularia oryzae [6]) was 100% throughout. Besides, the inhibition at 6.25 µg/mL in [9] was found to be 70%; with Blumeria graminis [7], 100%. For the same compound, the inhibition at 400 µg/mL (in the experiment with Blumeria graminis [5]; in [8]) was 100% throughout.
For the compound `CNC(=O)/C(=N/OC)c1ccccc1COc1cc(-c2ccc(Cl)cc2)nn1C`, the inhibition at 1.56 µg/mL in the experiment on Blumeria graminis [2] worked out at 0%. For the same compound, the Activity with Culex pipiens pallens and in the experiment with Myzus persicae was 100% each time. In addition, the inhibition at 25 µg/mL in experiment [3] is 100%; in the experiment with Pyricularia oryzae [6] it was 0%. Also, the inhibition at 6.25 µg/mL in experiment [9] came out at 60%; in the experiment on Blumeria graminis [7], 40%. In addition, the inhibition at 400 µg/mL (in the experiment on Blumeria graminis [5]; in experiment [8]) was 100% in each case.
Take `CO/N=C(/C(=O)OC)c1ccccc1COc1cc(-c2ccccc2)nn1C`: the inhibition at 25 µg/mL in experiment [3] was found to be 70%; with Phytophthora infestans [4] it was 0%; with Pyricularia oryzae [6], 0%. Besides, the Activity with Myzus persicae turned out to be 100%. Further, the values for the inhibition at 400 µg/mL (with Blumeria graminis [5]; in experiment [8]) were 70% and 95%, respectively.
In the case of `CO/N=C(/C(=O)OC)c1ccccc1COc1c(C)c(-c2ccc(C)cc2C)nn1C`, the inhibition at 0.92 µg/mL in the experiment with Pyricularia oryzae [1] turned out to be 80%; in the experiment on Phytophthora infestans [10], 100%. In addition, in the experiment with Blumeria graminis [2], the inhibition at 1.56 µg/mL turned out to be 75%. For the same compound, the inhibition at 25 µg/mL (in [3]; in the experiment on Phytophthora infestans [4]; with Pyricularia oryzae [6]) was 100% in each case. The results for the inhibition at 6.25 µg/mL (in [9]; in the experiment on Blumeria graminis [7]) were 98% and 100%, respectively. Moreover, the inhibition at 400 µg/mL (in the experiment on Blumeria graminis [5]; in experiment [8]) was 100% in each case.
Consider `CNC(=O)/C(=N/OC)c1ccccc1COc1c(C)c(-c2ccc(OC)cc2)nn1C`, for which the Activity with Leucania came out at 100%. For the same compound, the inhibition at 0.92 µg/mL in the experiment with Pyricularia oryzae [1] and in the experiment on Phytophthora infestans [10] was 50% throughout. The inhibition at 1.56 µg/mL in the experiment with Blumeria graminis [2] is 75%. For the same compound, the inhibition at 25 µg/mL came out at 85% in experiment [3], 80% with Phytophthora infestans [4] and 100% with Pyricularia oryzae [6]. For the same compound, the inhibition at 6.25 µg/mL was determined as 55% in [9] and 100% in the experiment on Blumeria graminis [7]. The inhibition at 400 µg/mL in the experiment on Blumeria graminis [5] was 100%; in [8], 98%.
Consider `CNC(=O)/C(=N/OC)c1ccccc1COc1c(C)c(-c2cc(C)ccc2C)nn1C`, for which the inhibition at 0.92 µg/mL in the experiment with Pyricularia oryzae [1] and with Phytophthora infestans [10] was 100% in each case. In addition, the inhibition at 1.56 µg/mL with Blumeria graminis [2] worked out at 0%. Further, the inhibition at 25 µg/mL (in [3]; in the experiment on Phytophthora infestans [4]; with Pyricularia oryzae [6]) was 100% throughout. Also, the inhibition at 6.25 µg/mL stood at 50% in experiment [9] and 40% in the experiment with Blumeria graminis [7]. The same compound registered an Activity in the experiment on Myzus persicae of 100%. The inhibition at 400 µg/mL (in the experiment on Blumeria graminis [5]; in experiment [8]) was 100% each time.
Consider `CCOc1ccc(-c2nn(C)c(OCc3ccccc3/C(=N\OC)C(=O)OC)c2C)cc1`, for which the inhibition at 0.92 µg/mL with Pyricularia oryzae [1] and with Phytophthora infestans [10] was 50% each time. Further, the inhibition at 1.56 µg/mL in the experiment with Blumeria graminis [2] is 50%. In addition, the inhibition at 25 µg/mL in experiment [3] was found to be 40%; with Phytophthora infestans [4] it was 100%; in the experiment on Pyricularia oryzae [6], 100%. In the experiment on Tetranychus cinnabarinus, this compound gave an Activity of 100%. In addition, the inhibition at 400 µg/mL (in the experiment on Blumeria graminis [5]; in experiment [8]) was 100% each time. In the experiment with Blumeria graminis [7], the inhibition at 6.25 µg/mL amounted to 100%.
`CO/N=C(/C(=O)OC)c1ccccc1COc1c(C)c(-c2ccc(OC)cc2)nn1C`: the inhibition at 0.92 µg/mL was 80% in the experiment with Pyricularia oryzae [1] and 50% in the experiment on Phytophthora infestans [10]. Moreover, the inhibition at 1.56 µg/mL in the experiment on Blumeria graminis [2] was 30%. For the same compound, the inhibition at 25 µg/mL in [3] was 55%; in the experiment on Phytophthora infestans [4], 100%; in the experiment on Pyricularia oryzae [6] it was 100%. For the same compound, the results for the inhibition at 6.25 µg/mL (in experiment [9]; with Blumeria graminis [7]) were 15% and 85%, respectively. The inhibition at 400 µg/mL (in the experiment on Blumeria graminis [5]; in experiment [8]) was 100% each time.
